The subject of assay [1] is mice (BALB/c and C57BL/6 strains). To be noted: BALB/c strain, fluoxetine 10 mg/kg/day; drug non-administration group about 125-130 sec; cited from earlier work.
The test system of assay [2] is mice (C57BL/6 strain, male). The assay is described as follows: Forced swim test (ManNAc oral administration). Conditions: juvenile mice (10- to 14-week-old), 5 mg/ml in drinking water for 4 weeks, 6 min test; control group about 2 min. The format is in vivo, mouse. As for the experimental part:
ManNAc was dissolved in drinking water, and drinking water having a concentration of 5 mg/ml was administered to juvenile mice (C57BL/6 strain, male) by administration by free drinking of water for 4 weeks in total from 10-week-old to 14-week-old (ManNAc administration group: 16 mice). The mice of the control group in the same age in weeks were allowed to take drinking water freely (control group: 16 mice).
Similarly, 5 mg/ml ManNAc-containing drinking water was administered to aged mice (C57BL/6 strain, male) by administration by free drinking of water for 4 weeks in total from […] (ManNAc administration group: 14 mice). The mice of the control group in the same age in weeks were allowed to take drinking water freely (control group: 15 mice).
According to the method described in S. C. […] The mice were graded with regard to 4 evaluation criteria: swimming, immobility, climbing, and others, and a dominant behavior was recorded every 5 sec. […]
When a mouse is forcibly placed in a water pool, it tries to swim to the shore. […] The forced swim test for 6 min enables quantification of immobility in a water tank, and the immobility has been proposed to be similar to “behavioral despair”, observed in depression.

Assay [3] concerns juvenile mice (C57BL/6 strain, male). The assay is described as follows: Social defeat test. Type of assay: in vivo, mouse. Conditions: defeat stress experience mice, 5 mg/ml in drinking water for 4 weeks, latter 3 min of 5 min. As for the experimental part:
Under conditions similar to those in Example 1, ManNAc was administered to juvenile mice (C57BL/6 strain, male) by administration by free drinking of water for 4 weeks in total from 10-week-old to 14-week-old (ManNAc administration group: 14 mice). The mice of the control group in the same age in weeks were allowed to take drinking water freely (control group: 14 mice).
A mouse that lived with a more aggressive mouse (aggressive mouse) for a given period (1 hr) stays away from the aggressive mouse thereafter. This test method reflects higher brain functions, and was developed as a social defeat test and widely utilized as a system for evaluating social anxiety (Nature (2008) 455, 894-902). The ManNAc administration group and the control group were made to stay together with an aggressive mouse (one-to-one) for 1 hr per day, and the defeat stress was imposed for 5 days. […] The number of times the defeat stress experience mouse intruded a contact zone formed on the periphery of the compartment in which the aggressive mouse was housed, and the sniffing time of the defeat stress experience mouse were measured in the latter 3 minutes of 5 minutes. […]

Assay [4] relates to mice (C57BL/6 strain, male). In words: Forced swim test (5S-ManNAcF, ManNAc, intracerebroventricular administration, 3 weeks). Conditions: 0.1 mmol/L in saline, intracerebroventricular by osmotic pump for 3 weeks, vs saline. The format is in vivo, mouse. As for the experimental part: Using 8-9-week-old mice (C57BL/6 strain, male) having a catheter transplanted in the cerebroventricle, and carrying a connected osmotic pump (0.11 μl/hr, Alzet, No1004, 100 μl is released in 28 days) on the back, 5S-ManNAcF (0.01, 0.1 mmol/L) or ManNAc (100 mmol/L) dissolved in saline was intracerebroventricularly administered for 3 weeks (administration group: each 9-10 mice). The mice of the control group in the same age in weeks were administered with saline (control group: each 9-10 mice, SAL).
A forced swim test similar to that in Example 1 was performed at 3 weeks after administration.

Assay [5] concerns mice (C57BL/6 strain, male). The assay is described as follows: Forced swim test (5S-ManNAcF intracerebroventricular administration, one week). Type of assay: in vivo, mouse. As for the experimental part: Similar to Example 3, 5S-ManNAcF (0.01, 0.1, 1 mmol/L administration group: each 9-10 mice) was administered intracerebroventricularly. The dosing period was one week. The mice of the control group in the same age in weeks were administered with saline (control group: each 9-10 mice, SAL).
A forced swim test similar to that in Example 1 was performed at 1 week after administration.

For `CNCCC(Oc1ccc(C(F)(F)F)cc1)c1ccccc1` (stereo not shown) [fluoxetine], the immobilization time entry in assay [1] was “about 100 sec”.
On to `CC(=O)N[C@@H]1C(O)O[C@H](CO)[C@@H](O)[C@@H]1O` (stereo partly drawn) [ManNAc, N-acetyl-D-mannosamine], for which, in assay [2], the total immobilization time entry is recorded as “about 1 min”. For the same molecule, the “contact zone intrusion number” value in assay [3] is “a significant difference was not found”. In assay [3] (water group about 20 sec or below, stress non-experience group about 30 sec), the “sniffing time (sniffing behavior)” value was “about 30 sec”.
Consider `O=C(CF)NC1C(O)SC(CO)[C@@H](O)C1O` (stereo partly drawn) [5S-ManNAcF], for which the “total immobilization time as compared to the control group” value in assay [4] was “significantly decreased”; in assay [5] (0.1 mmol/L in saline, intracerebroventricular by osmotic pump for one week, vs saline), “significantly decreased”. Further, the “effect on total immobilization time, comparison of concentrations” value in assay [5] (0.1 mmol/L vs 1 mmol/L, intracerebroventricular for one week) is recorded as “tendency of a higher effect at a concentration of 0.1 mmol/L than a high dose of 1 mmol/L”.

These data come from patent publication US9968624B2, “Depression treatment agent” (THE UNIVERSITY OF TOKYO, priority 2014, dated 2018).
